The record followed here is ChEMBL document CHEMBL1156970, “Endoxifen is a new potent inhibitor of PKC: a potential therapeutic agent for bipolar disorder” (Bioorg Med Chem Lett, 2010).

The nature of data set [1]: Inhibition of PKC at 0.1 mM after 90 mins by ELISA. (In general: ELISA stands for enzyme-linked immunosorbent assay.)
Data set [2] in a line: Inhibition of PKC at 0.2 mM after 90 mins by ELISA.
Data set [3] can be described thus: Inhibition of PKC at 0.025 to 0.05 mM after 90 mins by ELISA.
A short description of data set [4]: Inhibition of PKC after 90 mins by ELISA.
Data set [5] is described as follows: Inhibition of PKC at 0.025 mM after 90 mins by ELISA.
In a further data set the test system is Mus musculus. Put plainly: Toxicity in mouse at 8 mg/kg, po after 28 days. Further details: dose 8 mg/kg, route oral. Type of data set: organism-based. The settings on record: in vivo, 672 h.
Another data set concerns Rattus norvegicus. Put plainly: Toxicity in rat at 4 mg/kg, po after 28 days. The settings on record: in vivo, 672 h. Set-up: dose 4 mg/kg, route oral. In kind it is organism-based.

Activity calls are given as the source filed them. The rule behind the calls is not given here.

In general, inhibition refers to the drop in the measured response relative to a control, in per cent. With `CC/C(=C(\c1ccccc1)c1ccc(OCCN(C)C)cc1)c1ccccc1`, the inhibition in data set [1] worked out at 14%; in data set [2] it was 25%. For the same compound, the inhibition result in data set [3] is “inactive”.

For `CC/C(=C(\c1ccc(O)cc1)c1ccc(OCCNC)cc1)c1ccccc1` [ENDOXIFEN], the inhibition entry in data set [4] is “Dose-dependent effect”; in data set [2], 78%; in data set [5], 12%. Besides, the Activity result in the data set with Mus musculus and with Rattus norvegicus was “Non-toxic” each time.
